Measured values as given in US12378227B2, “Therapeutic cocrystals of 3-{[5-(azetidine-1-ylcarbonyl)pyrazin-2-yl]oxy}-5-{[(1S)-1-methyl-2-(methyloxy)ethyl]oxy)-N-(5-methylpyrazin-2-yl)benzamide” (CONDUIT UK MANAGEMENT LTD, priority 2021, dated 2025).

Experiments:
[1] = Dry milling in ball mill, assessed by eye and by XRPD; type: physicochemical; conditions: dry milled, Retsch MM400 ball mill, 2×15 min at 30 Hz, stainless-steel jar
Text: In order to prepare cocrystal samples of similar particle size for a dissolution study and to assess the impact of milling on the crystallinity of the cocrystals, Cocrystal 1, Cocrystal 2, Cocrystal 3, Cocrystal 4 and Cocrystal 5a were dry milled using a ball mill. WO 2012/007758 discloses that to achieve satisfactory dissolution of the benzamide compound particle size reduction was required. […] Thus, a solid form of the benzamide compound that could undergo particle size reduction with an efficient recovery rate without the need to use a co-milling excipient is beneficial. The milled cocrystals, Cocrystal 1, Cocrystal 2, Cocrystal 3, Cocrystal 4 and Cocrystal 5a, were therefore assessed by eye for any potential agglomeration issues or excessive sticking to the walls of the milling vessel that might indicate potential adhesion/cohesion issues such as those of the pure benzamide compound.
200 mg each of Cocrystal 1, Cocrystal 2, Cocrystal 3, Cocrystal 4 and Cocrystal 5a were separately placed in a 25 ml stainless-steel milling jar containing a 1 cm stainless steel ball bearing. Each benzamide cocrystal of the invention was dry milled in a Retsch MM400 ball mill for 2×15 min at 30 Hz. The product was assessed by eye and by XRPD.

[2] = Solid-state stability study, ambient conditions, 12 months; type: physicochemical; conditions: clear glass vial
Procedure: A second stability study was carried out where 50 mg each of Cocrystal 1, Cocrystal 2, Cocrystal 3, Cocrystal 4, and Cocrystal 5A were separately placed in a clear glass vial which was then stored under ambient conditions for 12 months. After this time all the cocrystals remained as white solids with no signs of colour change.

[3] = Solid-state stability study, accelerated storage 40° C./75% RH, 3 months; type: physicochemical; conditions: sealed container
Procedure: A study was carried out to examine the physical stability of the benzamide cocrystals of the invention with respect to solid form conversion or signs of decomposition over time under both ambient and accelerated conditions. 50 mg each of Cocrystal 1, Cocrystal 2, Cocrystal 4, and Cocrystal 5A were separately placed in a sealed container at 40° C. and 75% relative humidity and stored under these conditions for 3 months. After this time all samples remained unchanged in appearance with no signs of deliquescence and no signs of any colour change.

[4] = pure benzamide compound, as disclosed in WO 2012/007758; cited from earlier work
[5] = Polymorphism study (preparation methods 1 and 2 in different solvents); type: physicochemical; conditions: methods 1 and 2 using 2-propanol, ethyl acetate, acetonitrile, methyl ethyl ketone and water
Procedure: (§1) As AZD1656 is known to exist in six different crystalline forms an investigation was carried out to examine whether Cocrystal 1 could also exist in multiple polymorphic forms. Preparation methods 1 and 2 described above were carried out using 2-propanol, ethyl acetate, acetonitrile, methyl ethyl ketone and water.
as §1, with “Cocrystal 2” for “Cocrystal 1”

SMILES: COC[C@H](C)Oc1cc(Oc2cnc(C(=O)N3CCC3)cn2)cc(C(=O)Nc2cnc(C)cn2)c1.O=C(O)c1cc(O)ccc1O [Cocrystal 5A, 1:1 benzamide gentisic acid form 1]
- Powder flow / agglomeration after milling (by eye) [1]: free-flowing powder with no obvious signs of agglomeration
- Recoverability from milling chamber / adhesion to walls (by eye) [1]: easily recoverable from the milling chamber with no excessive adhesion to the walls of the milling jar
- Signs of loss of crystallinity due to milling (XRPD) [1]: None
- Appearance [2]: No change
- XRPD analysis (form change) [2]: No change
- Appearance [3]: No change
- XRPD analysis (form change) [3]: No change

SMILES: COC[C@H](C)Oc1cc(Oc2cnc(C(=O)N3CCC3)cn2)cc(C(=O)Nc2cnc(C)cn2)c1.O.O=C(O)C(O)C(O)C(=O)O [Cocrystal 4, 1:1 benzamide L-tartaric acid hydrate]
- Powder flow / agglomeration after milling (by eye) [1]: free-flowing powder with no obvious signs of agglomeration
- Recoverability from milling chamber / adhesion to walls (by eye) [1]: easily recoverable from the milling chamber with no excessive adhesion to the walls of the milling jar
- Signs of loss of crystallinity due to milling (XRPD) [1]: None
- Appearance [2]: No change
- XRPD analysis (form change) [2]: No change
- Appearance [3]: No change
- XRPD analysis (form change) [3]: No change

SMILES: COC[C@H](C)Oc1cc(Oc2cnc(C(=O)N3CCC3)cn2)cc(C(=O)Nc2cnc(C)cn2)c1 [benzamide compound, 3-{[5-(azetidine-1-ylcarbonyl)pyrazin-2-yl]oxy}-5-{[(1S)-1-methyl-2-(methyloxy)ethyl]oxy}-N-(5-methylpyrazin-2-yl)benzamide]
- Adhesion on dry milling [4]: excessive adhesion to the stainless-steel walls of the milling vessel resulting in low recovery yields

SMILES: COC[C@H](C)Oc1cc(Oc2cnc(C(=O)N3CCC3)cn2)cc(C(=O)Nc2cnc(C)cn2)c1.O=C(O)/C=C\C(=O)O [Cocrystal 2, 1:1 benzamide maleic acid]
- Powder flow / agglomeration after milling (by eye) [1]: free-flowing powder with no obvious signs of agglomeration
- Recoverability from milling chamber / adhesion to walls (by eye) [1]: easily recoverable from the milling chamber with no excessive adhesion to the walls of the milling jar
- Signs of loss of crystallinity due to milling (XRPD) [1]: None
- Appearance [2]: No change
- XRPD analysis (form change) [2]: No change
- Polymorphic forms obtained [5]: single polymorphic form
- Appearance [3]: No change
- XRPD analysis (form change) [3]: No change

SMILES: COC[C@H](C)Oc1cc(Oc2cnc(C(=O)N3CCC3)cn2)cc(C(=O)Nc2cnc(C)cn2)c1.O=C(O)CC(=O)O [Cocrystal 3, 1:1 benzamide malonic acid]
- Powder flow / agglomeration after milling (by eye) [1]: free-flowing powder with no obvious signs of agglomeration
- Recoverability from milling chamber / adhesion to walls (by eye) [1]: easily recoverable from the milling chamber with no excessive adhesion to the walls of the milling jar
- Signs of loss of crystallinity due to milling (XRPD) [1]: None
- Appearance [2]: No change
- XRPD analysis (form change) [2]: No change

SMILES: COC[C@H](C)Oc1cc(Oc2cnc(C(=O)N3CCC3)cn2)cc(C(=O)Nc2cnc(C)cn2)c1.O=C(O)/C=C/C(=O)O [Cocrystal 1, 1:1 benzamide fumaric acid]
- Powder flow / agglomeration after milling (by eye) [1]: free-flowing powder with no obvious signs of agglomeration
- Recoverability from milling chamber / adhesion to walls (by eye) [1]: easily recoverable from the milling chamber with no excessive adhesion to the walls of the milling jar
- Signs of loss of crystallinity due to milling (XRPD) [1]: None
- Appearance [2]: No change
- XRPD analysis (form change) [2]: No change
- Polymorphic forms obtained [5]: single polymorphic form
- Appearance [3]: No change
- XRPD analysis (form change) [3]: No change
